Laboratory results taken from patent US20220267271A1, “WNT ACTIVATORS AND METHODS OF USE” (MAYO FOUNDATION FOR MEDICAL EDUCATION AND RESEARCH, priority 2019, published 2022).

How the values were obtained:
Wnt/β-catenin signaling = Wnt/β-catenin signaling in human iPSC-derived neurons (Western blot, qPCR); format: cell-based
Method: Human iPSC-derived neurons were treated with 1015 (0.4 μM) for 48 h, and the mRNA levels of axin2 (B), neuroD1 (C) and SOX2 (D) were determined by qPCR. All the values are the average of three independent experiments with the SE values indicated by error bars. * P<0.05, ** P<0.01 verse corresponding control. (E) Human iPSC-derived neurons were treated with 1015 (0.4 μM) for 48 h, and the levels of phopspho-tau (p-tau) and total tau were determined by Western blotting with specific antibodies AT8 and HT7, respectively. This experiment is a representative of two such experiments performed with similar data.
NeuroD1, a proneural basic helix-loop-helix (bHLH) transcription factor, plays a critical role in CNS development, and is important for survival of neuronal progenitor cells. There is a TCF/LEF regulatory element in the Neurod1 promoter, and NeuroD1 is a specific target of Wnt/β-catenin signaling. […] In addition, 1015 also induces neural stem cell marker SOX2 expression in human iPSC-derived neurons ([…]). Importantly, 1015 suppresses tau phosphorylation in human iPSC-derived neurons (FIG. 16 at D).

LRP6 = assay: HA-LRP6 expression in HT1080 cells stably transduced with HA-LRP6, Western blot; format: cell-based, human; conditions: HT1080 cells stably transduced with HA-LRP6, 24 h
Method: (A) structures of niciosamide and CI-994; (B) HEK293 cells were transfected with Super8XTOPFlash and β galactosidase vectors along with Wnt3A or control vector. After 24 hours incubation, cells were treated with CI-994 at the indicated concentration for 24 hr. The luciferase activity was then measured and normalized to the activity of the β-galactosidase. (C) HT1080 cells stably transduced LRP6 with HA tag were treated with niciosamide and CI-994 at the indicated concentrations for 24 h. The levels of HA-LRP6 were examined by Western blot with anti-HA antibody. (D) Western blots showing the depletion of LRP6 after 2 days of transiently transfection of 50 nM LRP6 siRNA in HEK293 cells. […] The luciferase activity was then measured and normalized to β-galactosidase activity. […]
(A) HT1080 cells stably transduced with human LRP6 with HA tag were treated with niciosamide (1 μM) and other compounds as noted (1 μM) for 24 hr. […] The luciferase activity was then measured and normalized to β-galactosidase activity. […]
Western blotting: Cells in 6-well plates were lysed in 0.5 ml of lysis buffer (phosphate-buffered saline containing 1% Triton X-100, 1× Proteinase inhibitor cocktail Complete, and 1 mM PMSF) at 4° C. for 15 min. Equal quantities of protein were subjected to SDS-PAGE under reducing conditions. […]

Nc1ccccc1NC(=O)c1ccc(C(=O)NCC2CCN2C2CCCC2)cn1 (centres unmarked) [Compound 1015]
NeuroD1 expression (mRNA) (Wnt/β-catenin signaling; 0.4 μM, 48 h): significantly enhances | Wnt specific target axin2 expression (mRNA) (Wnt/β-catenin signaling; 0.4 μM, 48 h): increases | neural stem cell marker SOX2 expression (mRNA) (Wnt/β-catenin signaling; 0.4 μM, 48 h): induces | Wnt co-receptor LRP6 level (Wnt/β-catenin signaling; 24 h): enhances

CC(=O)Nc1ccc(C(=O)Nc2ccccc2N)cc1 [CI-994, 4-(acetylamino)-N-(2-aminophenyl)benzamide, reference compound]
HA-LRP6 expression (LRP6): significantly enhanced
